Data: patent publication US20140031288A1, “NOVEL COMPOSITION FOR TUMOR GROWTH CONTROL” (Erasmus University Medical Center, priority 2006, published 2014)

What was measured:
[1] = tested on: human BON carcinoid cells; assay: Apoptosis assay (DNA fragmentation, Cell Death Detection ELISA); assay type: cell-based; details: for effect on apoptosis, measured as DNA fragmentation, drug alone: 10^−8M
Experimental: Human pancreatic carcinoid BON cells were obtained from Dr Townsend (The University of Texas Medical Branch, Galveston, Tex., USA). The cells were cultured in a humidified incubator containing 5% CO2 at 37° C. The culture medium consisted of a 1:1 mixture of Dulbecco's modified Eagle's medium (DMEM) and F12K medium, supplemented with 10% FCS, penicillin (1×105 U/l), fungizone (0.5 mg/l) and 1-glutamine (2 mmol/l). Periodically, cells were confirmed as Mycoplasma-free. Cells were harvested with trypsin EDTA 10% and resuspended in medium. Before plating, cells were counted microscopically using a standard hemocytometer. […] Media and supplements were obtained from GIBCO Bio-cult Europe (Invitrogen, Breda, The Netherlands).
After trypsinization BON cells were plated in 24-well plates at a density of 1.5-2×10^4 cells/well. These plates were placed in a 37° C., 5% CO2 incubator. Three days later the medium was refreshed in the presence and absence (control group) of 5-aza-2′-deoxycytidine at different concentrations in the dose curve response experiment (10^−5M, 10^−6M, 10^−7M, 10^−8M and 10^−9M) or 5-aza-2′-deoxycytidine (5×10^−8M) with or without the somatostatin analog octreotide (10^−8M) or the dopamine agonist cabergoline (10^−8M).
Quadruplicates of each treatment were performed. After an additional incubation of 3 days, apoptosis was assessed using a commercially available ELISA kit (Cell Death Detection ELISAPlus, Roche Diagnostic GmbH, Penzberg, Germany). This assay is based on a quantitative sandwich-enzyme-immunoassay-principle, using mouse monoclonal antibodies directed against DNA and histones, respectively. This allows the specific determination of mono- and oligo-nucleosomes in the cytoplasmatic fraction of cell lysate, typical for apoptosis. The standard protocol supplied by the manufacturer was used. Briefly, the medium was carefully removed by suction, cells were incubated in 100 μl of lysis buffer (provided with the Cell Death Detection ELISAPlus assay). After lysis of the cells the solution was incubated with anti-DNA and anti-histone antibodies in a streptavidin-coated 96-well plate for 2 hours. After washing, the immunocomplex-bound peroxidase was probed with 2,2′-azino-di[3-ethylbenzthiazoline sulfonate] (a chromogenic substrate) for spectrophotometric detection at 405 nm, to quantify the amount of nucleosomes bound to the plate. Relative apoptosis was determined by a ratio of the average absorbance of the treatment wells to the average absorbance of the control wells.

[2] = tested on: human BON carcinoid tumor cells; assay: Cell proliferation assay (total DNA content, Hoechst 33258); assay type: cell-based; details: for effect on BON carcinoid cell growth, measured as DNA content: 10^−8M, drug alone
Experimental: Human pancreatic carcinoid BON cells were obtained from Dr Townsend (The University of Texas Medical Branch, Galveston, Tex., USA). The cells were cultured in a humidified incubator containing 5% CO2 at 37° C. The culture medium consisted of a 1:1 mixture of Dulbecco's modified Eagle's medium (DMEM) and F12K medium, supplemented with 10% FCS, penicillin (1×105 U/l), fungizone (0.5 mg/l) and 1-glutamine (2 mmol/l). Periodically, cells were confirmed as Mycoplasma-free. Cells were harvested with trypsin EDTA 10% and resuspended in medium. Before plating, cells were counted microscopically using a standard hemocytometer. Trypan Blue staining was used to assess cell viability, which always exceeded 95%. Media and supplements were obtained from GIBCO Bio-cult Europe (Invitrogen, Breda, The Netherlands).
After trypsinization, the cells were plated in 1 ml of medium in 24-well plates at a density of 0.4-2×10^4 cells/well. The plates were then placed in a 37° C., 5% CO2 incubator. Three days later the cell culture medium was replaced with 1 ml/well medium containing 5-aza-2′-deoxycytidine at different concentrations in the dose curve response experiment (0, 10^−5M, 10^−6M, 10^−7M, 10^−8M and 10^−9M) or 5-aza-2′-deoxycytidine (5×10^−8M) with or without the somatostatin analog octreotide (10^−8M) or the dopamine agonist cabergoline (10^−8M). In experiments evaluating the combination of 5-aza-2′-deoxycytidine and octreotide or cabergoline, a pre-treatment with 5-aza-2′-deoxycytidine (5×10^−8M) has been performed for 24 hours.
Plates were further incubated at 37° C. and 5% CO2. After 3 and 6 days of treatment cells were harvested for DNA measurement. Plates for 6 days were refreshed after 3 days and compounds were added again. Quadruplicates of each treatment were performed. Measurement of total DNA-contents, representative for the number of cells, was performed using the bisbenzimide fluorescent dye (Hoechst™ 33258) (Boehring Diagnostics, La Jolla, Calif.), as previously described (Hofland L J, van Koetsveld P M, Lamberts S W. Percoll density gradient centrifugation of rat pituitary tumor cells: a study of functional heterogeneity within and between tumors with respect to growth rates, prolactin production and responsiveness to the somatostatin analog SMS 201-995. Eur J Cancer 1990; 26:37-44.).

Compound | induction of DNA fragmentation ([1]; 5×10^−8M, 3 days, p<0.001 vs control) | induction of DNA fragmentation, dose curve ([1]; 3 day incubation, 10^−9M to 10^−5M, data not shown) | effect of AZA alone on DNA fragmentation (FIG. 3, FIG. 4) ([1]; AZA (5 nM) alone) | EC25 value of the apoptosis inducing effect ([1]; after 3 days of incubation) | inhibition of BON carcinoid cell growth, dose curve ([2]; 3 or 6 day incubation, 10^−9M to 10^−5M, data not shown) | inhibition of BON carcinoid cell growth at low dose ([2]; 5×10^−8M, 6 days, p<0.001 vs control) | IC25 value of the tumor cell growth inhibitory effect ([2]; after 6 days of incubation) | effect on apoptosis, measured as DNA fragmentation, drug alone ([1]; 3 day incubation) | effect on BON carcinoid cell growth, measured as DNA content ([2]; 3 or 6 day incubation)
Nc1ncn([C@H]2C[C@H](O)[C@@H](CO)O2)c(=O)n1 [5-aza-2′-deoxycytidine] | approximately 100% | dose-dependent manner | moderate effect | approximately 5×10^−8 M | time- and dose-dependent manner | significantly inhibited | approximately 5×10^−8 M |  | 
C=CCN1C[C@H](C(=O)N(CCCN(C)C)C(=O)NCC)C[C@@H]2c3cccc4[nH]cc(c34)C[C@H]21 [cabergoline] |  |  |  |  |  |  |  | no statistically significant effect | no statistically significant effect
C[C@@H](O)[C@@H]1NC(=O)[C@H](CCCCN)NC(=O)[C@@H](Cc2c[nH]c3ccccc23)NC(=O)[C@H](Cc2ccccc2)NC(=O)[C@@H](NC(=O)[C@H](N)Cc2ccccc2)CSSC[C@@H](C(=O)N[C@H](CO)[C@@H](C)O)NC1=O [octreotide] |  |  |  |  |  |  |  | no statistically significant effect | no statistically significant effect
